pIC50: −log10 of the molar value.

The term pIC50 denotes −log10 of the IC50, conventionally taken in molar units.

The target in this assay is Protein Wnt-3a (Human, UniProt P56704). Description: WNT pathway reporter gene assay. On the procedure: NIH3T3 mouse fibroblast cells (American Type Culture Collection, Manassas, Va.) were transfected with a plasmid containing a luciferase gene driven by 5 copies of TCF elements. Stale cells selected with 1 μg/mL of Zeocin (Gibco/Invitrogen, Carlsbad, Calif.) are cultured in Dulbecco's modified Eagle's medium (Invitrogen, Carlsbad, Calif.) supplemented with 10% FBS (Invitrogen), 50 unit/mL penicillin and 50 μg/mL of streptomycin (Invitrogen) at 37° C. with 5% CO2 in air atmosphere. […] After 16 hours, the firefly luciferase activities are measured with the Steady-Glo Luciferase Assay System (Promega). The cells were treated with different concentrations of compounds of this invention during the co-culture. […] To normalize for cell quantity and viability, CellTiter Glo assay is next performed in a duplicate plate.
Chain of Protein Wnt-3a (P56704 whole entry): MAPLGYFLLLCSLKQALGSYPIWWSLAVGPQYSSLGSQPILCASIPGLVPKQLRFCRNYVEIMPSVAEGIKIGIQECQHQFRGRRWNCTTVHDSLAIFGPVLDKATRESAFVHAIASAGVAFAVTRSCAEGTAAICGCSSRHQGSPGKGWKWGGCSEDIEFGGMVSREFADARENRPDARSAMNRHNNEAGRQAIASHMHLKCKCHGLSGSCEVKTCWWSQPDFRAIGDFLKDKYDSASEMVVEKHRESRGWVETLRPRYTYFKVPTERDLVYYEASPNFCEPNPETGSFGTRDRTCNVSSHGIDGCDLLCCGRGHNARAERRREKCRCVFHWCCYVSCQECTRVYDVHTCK
For `Cc1cc(-c2cc3ccnc(NCc4ccc(-c5ccnc(C)c5)c(C)c4)c3cn2)ccn1` [US10087181, Compound 2], the pIC50 is > 8.52. As for `Cc1cc(-c2cc3ccnc(NCc4ccc(-c5ccnc(F)c5)c(F)c4)c3cn2)ccn1` [US10087181, Compound 28], the figure is > 8.52; as for `Cc1cc(-c2ncc(CNc3nccc4cc(-c5cnccn5)ccc34)cc2C)ccn1` [US10087181, Compound 70], > 8.52; as for `Cc1cc(-c2ccc(CNc3nccc4cc(-c5ccnc(C)c5)ncc34)cc2)ccn1` [US10087181, Compound 1], > 8.52.

For the compound `Cc1cc(-c2ccc(CNc3nccc4cc(-c5cnccn5)ncc34)cc2)ccn1` [US10087181, Compound 35], the pIC50 is > 8.52.
